What follows are substances tested on HLA-A*24 (assay: MHC binding assay, UV-ligand exchange with beta2m ELISA (exchange yield), HLA-A*24). Conditions: binding to HLA-A*24, UV-ligand exchange.
Design: species or system human
Excerpt: Candidate peptides for T cell based therapies according to the present invention were further tested for their MHC binding capacity (affinity). The individual peptide-MHC complexes were produced by UV-ligand exchange, where a UV-sensitive peptide is cleaved upon UV-irradiation, and exchanged with the peptide of interest as analyzed. Only peptide candidates that can effectively bind and stabilize the peptide-receptive MHC molecules prevent dissociation of the MHC complexes. To determine the yield of the exchange reaction, an ELISA was performed based on the detection of the light chain (β2m) of stabilized MHC complexes. The assay was performed as generally described in Rodenko et al. (Rodenko et al., 2006).
96 well MAXISorp plates (NUNC) were coated over night with 2 ug/ml streptavidin in PBS at room temperature, washed 4× and blocked for 1 h at 37° C. in 2% BSA containing blocking buffer. […] Peptide-MHC monomers of the UV-exchange reaction were diluted 100 fold in blocking buffer. Samples were incubated for 1 h at 37° C., washed four times, incubated with 2 ug/ml HRP conjugated anti-β2m for 1h at 37° C., washed again and detected with TMB solution that is stopped with […]. Absorption was measured at 450 nm. Candidate peptides that show a high exchange yield (preferably higher than 50%, most preferred higher than 75%) are generally preferred for a generation and production of antibodies or fragments thereof, and/or T cell receptors or fragments thereof, as they show sufficient avidity to the MHC molecules and prevent dissociation of the MHC complexes.

Peptide exchange (MHC class I binding score, peptide exchange yield)	Substance
+++ (50%-75% = +++)	193 (LYLENNAQTQF; listed as Homo sapiens) [compound 193]
++++ (>=75% = ++++)	357 (QFITSTNTF; listed as Homo sapiens) [compound 357]
++++ (>=75% = ++++)	264 (LYTETRLQF; listed as Homo sapiens) [compound 264]
+++ (50%-75% = +++)	245 (LYPQLFVVL; listed as Homo sapiens) [compound 245]
+++ (50%-75% = +++)	141 (SYNGHLTIWF; listed as Homo sapiens) [compound 141]
+++ (50%-75% = +++)	378 (VYIAELEKI; listed as Homo sapiens) [compound 378]
++++ (>=75% = ++++)	280 (TYNPNLQDKL; listed as Homo sapiens) [compound 280]
++++ (>=75% = ++++)	129 (KYIDYLMTW; listed as Homo sapiens) [compound 129]
+++ (50%-75% = +++)	355 (IYVTGGHLF; listed as Homo sapiens) [compound 355]
+++ (50%-75% = +++)	343 (NYLGGTSTI; listed as Homo sapiens) [compound 343]
+ (<20% = +)	124 (TYKDYVDLF; listed as Homo sapiens) [compound 124]
+++ (50%-75% = +++)	256 (VFGKSAYLF; listed as Homo sapiens) [compound 256]
+++ (50%-75% = +++)	304 (EYNEVANLF; listed as Homo sapiens) [compound 304]
+++ (50%-75% = +++)	234 (SYLPAIWLL; listed as Homo sapiens) [compound 234]
++++ (>=75% = ++++)	301 (KFDDVTMLF; listed as Homo sapiens) [compound 301]
++++ (>=75% = ++++)	293 (VYPHFSTTNLI; listed as Homo sapiens) [compound 293]
++ (20%-49% = ++)	250 (KYPDIASPTF; listed as Homo sapiens) [compound 250]
++++ (>=75% = ++++)	265 (SYLNEAFSF; listed as Homo sapiens) [compound 265]
+++ (50%-75% = +++)	216 (FYVNVKEQF; listed as Homo sapiens) [compound 216]
+++ (50%-75% = +++)	146 (NYYERIHAL; listed as Homo sapiens) [compound 146]
+++ (50%-75% = +++)	241 (SYVKVLHHL; listed as Homo sapiens) [compound 241]

Peptide exchange (MHC class I binding score, peptide exchange yield)	Substance
++++ (>=75% = ++++)	271 (RFLMKSYSF; listed as Homo sapiens) [compound 271]
+++ (50%-75% = +++)	269 (QYPYLQAFF; listed as Homo sapiens) [compound 269]
+++ (50%-75% = +++)	315 (FYIPHVPVSF; listed as Homo sapiens) [compound 315]
+++ (50%-75% = +++)	191 (TYPDGTYTGRIF; listed as Homo sapiens) [compound 191]
+++ (50%-75% = +++)	306 (VYPAEQPQI; listed as Homo sapiens) [compound 306]
++++ (>=75% = ++++)	116 (AYVIAVHLF; listed as Homo sapiens) [compound 116]
+++ (50%-75% = +++)	385 (QYIEELQKF; listed as Homo sapiens) [compound 385]
+++ (50%-75% = +++)	251 (VYTKALSSL; listed as Homo sapiens) [compound 251]
++++ (>=75% = ++++)	252 (AFGQETNVPLNNF; listed as Homo sapiens) [compound 252]
++++ (>=75% = ++++)	249 (RYHPTTCTI; listed as Homo sapiens) [compound 249]
+++ (50%-75% = +++)	247 (SFTKTSPNF; listed as Homo sapiens) [compound 247]
+++ (50%-75% = +++)	303 (LYSVIKEDF; listed as Homo sapiens) [compound 303]
+++ (50%-75% = +++)	310 (IYAPTLLVF; listed as Homo sapiens) [compound 310]
+++ (50%-75% = +++)	113 (IYSFHTLSF; listed as Homo sapiens) [compound 113]
+++ (50%-75% = +++)	134 (AYIPTPIYF; listed as Homo sapiens) [compound 134]
+++ (50%-75% = +++)	348 (IYLEHTESI; listed as Homo sapiens) [compound 348]
+++ (50%-75% = +++)	253 (IYGFFNENF; listed as Homo sapiens) [compound 253]
+++ (50%-75% = +++)	108 (PYLVVIHTL; listed as Homo sapiens) [compound 108]
++++ (>=75% = ++++)	210 (IYAGVGEFSF; listed as Homo sapiens) [compound 210]
+++ (50%-75% = +++)	284 (DYLKDPVTI; listed as Homo sapiens) [compound 284]
++++ (>=75% = ++++)	148 (SYGTVSQIF; listed as Homo sapiens) [compound 148]

Peptide exchange (MHC class I binding score, peptide exchange yield)	Substance
++++ (>=75% = ++++)	173 (QYLEKYYNL; listed as Homo sapiens) [compound 173]
+++ (50%-75% = +++)	225 (TYTNTLERL; listed as Homo sapiens) [compound 225]
++ (20%-49% = ++)	198 (DYVGFTLKI; listed as Homo sapiens) [compound 198]
+++ (50%-75% = +++)	364 (KYLNENQLSQL; listed as Homo sapiens) [compound 364]
++ (20%-49% = ++)	213 (SYAPPSEDLFL; listed as Homo sapiens) [compound 213]
+++ (50%-75% = +++)	382 (AYLPPLQQVF; listed as Homo sapiens) [compound 382]
+++ (50%-75% = +++)	147 (LYLAFPLAF; listed as Homo sapiens) [compound 147]
++++ (>=75% = ++++)	223 (TFITQSPLL; listed as Homo sapiens) [compound 223]
++++ (>=75% = ++++)	209 (AFIETPIPLF; listed as Homo sapiens) [compound 209]
+++ (50%-75% = +++)	387 (KYTEKLEEI; listed as Homo sapiens) [compound 387]
+++ (50%-75% = +++)	201 (GYNPNRVFF; listed as Homo sapiens) [compound 201]
+++ (50%-75% = +++)	285 (VYVGDALLHAI; listed as Homo sapiens) [compound 285]
+++ (50%-75% = +++)	236 (VYLPKIPSW; listed as Homo sapiens) [compound 236]
+++ (50%-75% = +++)	300 (TYPSQLPSL; listed as Homo sapiens) [compound 300]
+++ (50%-75% = +++)	243 (SYLELANTL; listed as Homo sapiens) [compound 243]
++++ (>=75% = ++++)	313 (KYTHFIQSF; listed as Homo sapiens) [compound 313]
+++ (50%-75% = +++)	255 (VYQKIILKF; listed as Homo sapiens) [compound 255]
++++ (>=75% = ++++)	261 (GYIKLINFI; listed as Homo sapiens) [compound 261]
+++ (50%-75% = +++)	227 (IYRFITERF; listed as Homo sapiens) [compound 227]
++++ (>=75% = ++++)	187 (AYAANVHYL; listed as Homo sapiens) [compound 187]

Reference: patent US10130693B2, “Peptides, combination of peptides and scaffolds for use in immunotherapeutic treatment of various cancers” (Immatics Biotechnologies GmbH, priority 2015, dated 2018)
